Patent US9962360B2, “Compositions and methods for enhancing hair growth, promoting skin regeneration, and wound healing” (The Hospital for Sick Children, priority 2014, dated 2018)

Assays:
[1] = tested on: neonatal rat SKPs; assay: Secondary sphere formation assay / dose-response with rat SKPs; conditions: for rat SKPs sphere number: 100 nM, neonatal rat SKPs; for sphere numbers, dose-response curve: rat SKPs
Description: Alp and TM were further characterized by dose-response curves with rat SKPs. […] A clonal density assay was also performed to validate the effect of drugs on SKPs self renewal and proliferation. As previously described in Jinno et al., Stem Cells 28:2027-2040, 2010, SKPs were dissociated and plated at 2,500 cells/mL in medium containing 1.6% methylcellulose. Cells were then treated with 100 nM of Alp, TM, Alp and TM, or DMSO and sphere formation was scored after 14 days. […] For comparison, cells were also treated with latanoprost (Latan), a prostaglandin (PGF2) that is bioactive in rodent and human skin. […] Finally, SKP proliferation was directly measured. Rat SKPs were cultured for 3-4 days, treated with Alp or TM daily for a further 2 days, and immunostained with the proliferation marker Ki67.

[2] = tested on: human SKPs; assay: Dose response sphere forming assay in human SKPs cultures; conditions: for human SKPs sphere number: 100 nM; for validation of hits in dose response sphere forming assays: secondary screens, rodent and human SKPs cultures
[3] = tested on: ERK1/2; assay: Western blot of phosphorylated, activated ERK1/2 in SKPs; conditions: 100 nM, SKPs cultured in FGF2 and EGF
[4] = tested on: back skin wound of C57/B16 mice; assay: Full Thickness Biopsy Punch Wound model, topical application; conditions: for Ki67-positive proliferating dermal cells at the leading edge of the newly formed dermis: 7 days post-injury; for dermal tissue regeneration (layer of new dermal tissue) / epithelial gap / wound width: day 9, morphometric analysis; for CD31-positive blood vessels in the wound bed: leading edge of the newly formed dermis; for mice fully healed on day 7: topical daily, day 7 post-wounding, none of the vehicle treated controls
Description: The effects of Alp and TM were further validated in in vivo rodent models. The model used was a Full Thickness Biopsy Punch Wound performed on the back skin of middle-aged (9 months old) C57/B16 mice (FIGS. 2A-2I). In these experiments, the hair on the back skin was shaved to expose skin and a 6 mm diameter wound was performed with a biopsy punch. Alp, TM, or vehicle were reconstituted in a composition of water-ethanol-propylene glycol (PG) and applied daily around the wound for the duration of 9 days. Topical analysis was performed to assess the degree of wound closure as well as morphometric analysis. For the analysis of wound closure, digital photographs were taken at day 0, 3, 7, and 9 post wounding. A ruler was used to calibrate the images and the wound margins were manually outlined. The wound closure rate was calculated as a percentage of the wound size on the day of surgery as previously reported in Johnston et al., Stem Cell Reports. […] Morphometric analyses of wound parameters were performed on hematoxylin and eosin-stained paraffin tissue sections from the central portion of the wound bed. Sections were scanned and images were stitched together to show the full wound bed. Morphometric analysis of different parameters was performed as described previously in Johnston et al., supra.

[5] = tested on: CREB; assay: Western blot of phosphorylated, activated CREB in SKPs; conditions: 100 nM
[6] = tested on: STAT3; assay: Western blot of phosphorylated, activated STAT3 in SKPs; conditions: 100 nM
[7] = tested on: Akt1; assay: Western blot of phosphorylated, activated Akt1 in SKPs; conditions: 100 nM
[8] = tested on: GSK3beta; assay: Western blot of phosphorylated, activated GSK3beta in SKPs; conditions: 100 nM
[9] = tested on: back skin of mice; assay: Skin assays: dermal thickness and proliferation after topical application; conditions: for number of Ki67 positive proliferating cells in the dermis: one week of topical treatment; for dermal thickness: three weeks of topical treatment
Description: Drugs were applied daily on the depilated area for the duration of three weeks. […] In the skin assays, the back hair of mice was shaved to expose skin and drugs were topically applied for the duration of one or three weeks. Skin morphology was then assessed by analyzing dermal thickness and proliferation.

[10] = tested on: Rat SKPs; assay: Ki67 immunostaining of rat SKP spheres; conditions: rat SKPs cultured 3-4 days, treated daily for a further 2 days
Description: Finally, SKP proliferation was directly measured. Rat SKPs were cultured for 3-4 days, treated with Alp or TM daily for a further 2 days, and immunostained with the proliferation marker Ki67.

[11] = tested on: SKPs; assay: Sphere forming assay of SKPs isolated from topically treated wound bed or skin; conditions: in vivo topical application
Description: To assess whether the effects of topical application of Alp and TM were specific and due to recruitment of SKPs in vivo, an experiment was performed in which the drugs were applied topically for one week on the back skin of aged wounded or not wounded mice. The wound bed or control skin was dissected and SKPs were isolated and allowed to form spheres. Secondary SKP spheres were then used in a sphere forming assay.

[12] = tested on: SKPs; assay: 7 day sphere assay with MEK inhibition; conditions: with 100 nM trametinib
[13] = tested on: SKPs; assay: Clonal density assay in methylcellulose (SKPs self renewal and proliferation); format: cell-based; conditions: for sphere number versus control / sphere size versus control: 100 nM, scored after 14 days, 2,500 cells/mL, 1.6% methylcellulose; for sphere numbers, comparison with latanoprost: treatment for 14 days (FIG. 1L)
Description: Finally, SKP proliferation was directly measured.

Compound	rat SKPs sphere number [1]	human SKPs sphere number [2]	validation of hits in dose response sphere forming assays [2]	increase of ERK1/2 phosphorylation over basal levels [3]	Ki67-positive proliferating dermal cells at the leading edge of the newly formed dermis [4]	dermal tissue regeneration (layer of new dermal tissue) [4]	epithelial gap [4]	wound width [4]	CD31-positive blood vessels in the wound bed [4]	mice fully healed on day 7 [4]	phosphorylated, activated CREB compared to control [5]	phosphorylated, activated STAT3 compared to control [6]	phosphorylated, activated Akt1 compared to control [7]	sphere numbers, dose-response curve [1]	phosphorylated, activated GSK3beta compared to control [8]	number of Ki67 positive proliferating cells in the dermis [9]	dermal thickness [9]	increase of Ki67-positive sphere cells [10]	long term self-renewal of SKPs [11]	sphere numbers, comparison with latanoprost [13]	further results
O=c1c(O)c(-c2ccc(O)cc2)oc2cc(O)cc(O)c12 [Kae, kaempferol]	increase	increase	confirmed																		
CC[N+](CC)(CC)CCOc1ccc(/C=C/c2ccccc2)cc1 [MG 624]	increase	increase	confirmed																		
CCCCOc1ccc(OCCCN2CCOCC2)cc1 [Pram, pramoxine]	increase	increase	confirmed																		
trimebutine maleate [TM]	increase	increase	confirmed	approximately two-fold	increase	enhanced	significantly smaller	significantly smaller	increased	almost half	neither Alp nor TM increased	neither Alp nor TM increased	neither Alp nor TM increased	increased in a dose-dependent fashion	neither Alp nor TM increased	increased	increase	approximately 60%	enhance	significant increase	compensation of the trametinib-induced decrease in sphere number [12]: neither TM nor Alp compensated; sphere number versus control [13]: robust increase; sphere size versus control [13]: robust increase
CC(C)OC(=O)CCC/C=C\C[C@@H]1[C@@H](CC[C@@H](O)CCc2ccccc2)[C@H](O)C[C@@H]1O [Latan, latanoprost]																				significant increase	
CCCCC[C@H](O)/C=C/[C@H]1[C@H](O)CC(=O)[C@@H]1CCCCCCC(=O)O [Alp, alprostadil]	increase	increase	confirmed	approximately two-fold	increased	enhanced	significantly smaller	significantly smaller	increased	almost half	neither Alp nor TM increased	neither Alp nor TM increased	neither Alp nor TM increased	increased in a dose-dependent fashion	neither Alp nor TM increased	increased	increase	approximately 60%	enhance	significant increase	compensation of the trametinib-induced decrease in sphere number [12]: neither TM nor Alp compensated; sphere number versus control [13]: robust increase; sphere size versus control [13]: robust increase
